Results reported in patent US12116348B2, “Substituted benzimidazole compound and composition comprising same” (Shenzhen TargetRx, Inc., priority 2017, dated 2024).

How the values were obtained:
HT-29 cells = experiment: Cytotoxicity experiment: viability of HT-29 cells (CellTiter-Glo); assay type: cell-based; details: Homo sapiens, 72 hours, CTG analysis, read-out: HT-29 cell IC50
Description: (1) Cytotoxicity Experiment
The inhibitory effects of the example compounds on the viability of HT-29 cells were tested.
Cell line: HT-29 (cell type: adherent; number of cells/well: 3000; medium: RPMI-1640+10% FBS) was cultured under the condition of 37° C., 5% CO2, and 95% humidity.
Materials and Reagents: Fetal bovine serum (FBS, GBICO, Cat. No. 10099-141), CellTiter-Glo® Luminescent Cell Viability Assay (Promega, Cat. No. G7572), 96-well plate with transparent flat bottom and black walls (Corning®, Cat. No. 3603).
Instruments: SpectraMax multi-label microplate reader, MD, 2104-0010A; CO2 incubator, Thermo Scientific, Model 3100 Series; biosafety cabinet, Thermo Scientific, Model 1300 Series A2; inverted microscope, Olympus, CKX41SF; refrigerator, SIEMENS, KK25E76TI.
• 1) Cell culture and inoculation: i) cells in the logarithmic growth phase were harvested and counted using a […]. The cell viability was determined by trypan blue exclusion method to ensure that the cell viability was greater than 90%; ii) the cell concentration was adjusted; and 90 μL of the cell suspension was added into a 96-well plate, respectively; iii) the cells in the 96-well plate were cultured overnight under the condition of 37° C., 5% CO2 and 95% humidity. • 2) Drug dilution and dosing: i) the 10-fold drug solutions were prepared with a maximum concentration of 100 μM, which was diluted using a 3.16-fold serial gradient dilution, resulting in 9 concentrations. 10 μL of the drug solutions was added to each well of the 96-well plate inoculated with cells; and each drug concentration was tested in triplicate; ii) the cells in the 96-well plate added with drugs were cultured under the condition of 37° C., 5% CO2 and 95% humidity for 72 hours, and then CTG analysis was carried out. • 3) Plate reading at the end point: i) CTG reagent was thawed and the cell plate was equilibrated to room temperature for 30 minutes; ii) equal volume of the CTG solution was added to each well; iii) the cell plate was shaked on the orbital shaker for 5 minutes to lyse the cells; iv) the cell plate was placed at room temperature for 20 minutes to stabilize the cold light signal; v) the cold light values were read.
Data processing: GraphPad Prism 5.0 software was used to analyze the data, and the data was fitted using the non-linear S-curve regression to get a dose-effect curve, and IC50 values were calculated accordingly. Cell viability (%)=(Lum of test drug−Lum of medium control)/(Lum of cell control−Lum of medium control)×100%.

[1] = Metabolic stability evaluation in mouse liver microsomes; assay type: in vitro ADME; details: SD, pH 7.4, mouse liver microsomes 0.5 mg/mL, compound 1 μM; for microsomal CLint at 1 μM: liver intrinsic clearance; for half-life at 1 μM: NADPH, 37° C.
Description: (2) Metabolic Stability Evaluation
Microsome assay: mouse liver microsomes: 0.5 mg/mL, Xenotech; coenzyme (NADPH/NADH): 1 mM, Sigma Life Science; magnesium chloride: 5 mM, 100 mM phosphate buffer (pH 7.4).
Preparation of stock solutions: Powder of the example compounds were accurately weighed and dissolved in DMSO to 5 mM respectively.
Preparation of phosphate buffer (100 mM, pH7.4): A pre-prepared 0.5M potassium dihydrogen phosphate (150 mL) was mixed with 0.5M dibasic potassium phosphate (700 mL). The pH of the mixture was adjusted to 7.4 with 0.5M dibasic potassium phosphate solution. The mixture was diluted 5-fold with ultrapure water before use, and magnesium chloride was added to obtain a phosphate buffer (100 mM) containing 100 mM potassium phosphate, 3.3 mM magnesium chloride, pH 7.4.
A NADPH regeneration system solution (containing 6.5 mM NADP, 16.5 mM G-6-P, 3 U/mL G-6-P D, 3.3 mM magnesium chloride) was prepared and placed on wet ice prior to use.
Preparation of stop solution: an acetonitrile solution containing 50 ng/mL propranolol hydrochloride and 200 ng/mL tolbutamide (internal standard). 25057.5 μL of phosphate buffer (pH 7.4) was taken into a 50 mL centrifuge tube, to which 812.5 μL of SD mouse liver microsomes were added, and mixed to obtain a liver microsome dilution with a protein concentration of 0.625 mg/mL.
Incubation of the samples: The stock solutions of the respective compounds were respectively diluted to 0.25 mM with an aqueous solution containing 70% acetonitrile, and used as a working solution, ready for use. 398 μL of the dilutions of mouse liver microsomes were added to 96-well incubation plates (N=2), respectively, and 2 μL of 0.25 mM working solution was added respectively and mixed.
Metabolic stability assay: 300 μL of pre-chilled stop solution was added to each well of 96-well deep well plates and placed on ice as stop plates. The 96-well incubation plates and NADPH regeneration system were placed in a 37° C. water bath, shaken at 100 rpm and pre-incubated for 5 min. 80 μL of incubation solution was taken out from each well of the incubation plates and added to the stop plates, mixed, and replenished with 20 μL of NADPH regeneration system solution as a 0-min sample. 80 μL of NADPH regeneration system solution was added to each well of the incubation plates to start the reaction and start counting. […] Separately, 100 μL of the reaction solutions was taken at 10, 30, and 90 min after the reaction, respectively, added to stop plates, and vortexed for 3 minutes to terminate the reaction. The stop plates were centrifuged at 5000×g at 4° C. for 10 min. 100 μL of the supernatant was added to a 96-well plate to which 100 μL of distilled water was previously added, mixed, and analyzed by LC-MS/MS.
Data analysis: The peak areas of the corresponding compounds and internal standard were detected by LC-MS/MS system, and the ratio of the peak area of the compounds to the internal standard was calculated.

Compound	microsomal CLint at 1 μM [1]	half-life at 1 μM [1]	IC50 (HT-29 cells)
[2H]C([2H])([2H])n1cnc2c(F)c(Nc3ccc(Br)cc3Cl)c(C(=O)NOCCO)cc21 [A-1, 6-(4-bromo-2-chloro-phenylamino)-7-fluoro-3-(methyl-d3)-3H-benzimidazole-5-carboxylic acid (2-hydroxyethoxy)-amide]	19.7 µL/min/mg	1.17 h	< 0.5 nM
[2H]C([2H])(O)CONC(=O)c1cc2c(ncn2C)c(F)c1Nc1ccc(Br)cc1Cl [A-4, 6-(4-bromo-2-chlorophenylamino)-7-fluoro-3-methyl-3H-benzimidazole-5-carboxylic acid (2-hydroxyethoxy-2,2-d2)amide]	24.6 µL/min/mg	0.94 h	< 0.5 nM
[2H]C([2H])(O)CONC(=O)c1cc2c(ncn2C([2H])([2H])[2H])c(F)c1Nc1ccc(Br)cc1Cl [A-5, 6-(4-bromo-2-chlorophenylamino)-7-fluoro-3-(methyl-d3)-3H-benzimidazole-5-carboxylic acid (2-hydroxyethoxy-2,2-d2)amide]	20.9 µL/min/mg	1.11 h	< 0.5 nM

Second part, led by results:

microsomal CLint at 1 μM [1]	half-life at 1 μM [1]	Compound	IC50 (HT-29 cells)
19.8 µL/min/mg	1.17 h	[2H]C([2H])(O)C([2H])([2H])ONC(=O)c1cc2c(ncn2C)c(F)c1Nc1ccc(Br)cc1Cl [A-6, 6-(4-bromo-2-chlorophenylamino)-7-fluoro-3-methyl-3H-benzimidazole-5-carboxylic acid (2-hydroxyethoxy-1,1,2,2-d4)amide]	–
23.6 µL/min/mg	0.978 h	Cn1cnc2c(F)c(Nc3ccc(Br)cc3Cl)c(C(=O)NOCCO)cc21 [Selumetinib, 6-(4-bromo-2-chloro-phenylamino)-7-fluoro-3-methyl-3H-benzimidazole-5-carboxylic acid (2-hydroxy-ethoxy)-amide, reference compound]	< 0.5 nM
